From patent US7371364B2, “Cyclic peptide and imaging compound compositions and uses for targeted imaging and therapy” (Board of Regents, The University of Texas System, priority 2003, dated 2008) come the findings set out here.

One test deals with SKBr-3 tumors. Briefly: In vivo NIR fluorescent imaging with HWG imaging agent. On the set-up: species or system mice. Conditions: 4 days after i.v. injection, 15 nmol per mouse. As to the method: Four to six week-old athymic nude mice (18-22 g, Harlan Sprague Dawley, Inc., Indianapolis, Ind.) were housed 5 per cage with sterilized pet chow (Harlan Sprague Dawley) and sterilized water. Animals were maintained in a pathogen-free mouse colony in the Department of Veterinary Medicine at the University of Texas M.D. Anderson Cancer Center. All experiments were performed in accordance with the guidelines of the Institutional Animal Care and Use Committee. Tumor cells were harvested near confluence by incubation with 0.05% trypsin-EDTA. Cells were pelleted by centrifugation at 450×g for 5 minutes and resuspended in sterile PBS. Cells (2-3×10^6/animal) were implanted subcutaneously into the chest wall or the hind legs of the mice. Human PC-3 prostate tumors were obtained by intratibia injection of PC-3 cells into male nude mice. Human U87 glioma tumors were obtained by intracranial injection.
In vivo fluorescence imaging was accomplished by illuminating the animal with light from a laser diode (785 nm, 80 mW for IGC; 660 nm, 35 mW for Cy 5.5 dyes) expanded to an approximate 8 cm diameter circular area. The re-emitted fluorescent light was collected by an image intensifier (model FS9910C, ITT Night Vision, Roanoke, Va.) lens-coupled to a CCD camera (model CH350, Photometrics, Tucson, Ariz.). The imaging was designed so that the field of view could be varied from 3×3 cm to over 12×12 cm by varying the image distance of the 50 mm lens used to focus the image onto the photocathode of the intensifier. The lens was fitted with a holographic notch-plus filter (785 nm center wavelength for ICG and 660 nm center wavelength for Cy5.5 dyes; Kaiser Optical Systems, Inc., Ann Arbor, Mich.) and a bandpass filter (830 nm center wavelength for ICG, 710 nm center wavelength for Cy5.5 dyes) to reject back-scattered and reflected excitation photons. Image acquisition was accomplished using V++ software (Digital Optics, Auckland, New Zealand) and obtained images were stored in uncompressed tagged image file format (tiff). Data processing and analysis was accomplished using Matlab software (The Math Works, Inc., Natick, Mass.).

The test system of a further test is KS1767 tumors. As to the kind of experiment: In vivo NIR imaging of subcutaneous KS1767 tumors with RGD imaging agent. Also on record: species or system mice. Conditions: subcutaneous KS1767 tumors, i.v. 6 nmol/mouse, image 24 hours after injection. From the text: Cy5.5-c(KRGDf; SEQ ID NO. 3) may be used in near infrared (NIR) imaging. Mice inoculated with KS1767 were used for in vivo NIR studies. The mice were four to six week-old athymic nude mice (18-22 g, Harlan Sprague Dawley, Inc. Indianapolis, Ind.) which were housed 5 per cage and fed with sterilized pellet chow (Harlan Sprague Dawley) and sterilized water. The animals were maintained in a pathogen-free mouse colony in the Department of Veterinary Medicine at the University of Texas M.D. Anderson Cancer Center. All experiments were performed in accordance with the guidelines of the Institutional Animal Care and Use Committee.
Tumor cells for use in the animals were harvested near confluence by incubation with 0.05% trypsin-EDTA. Cells were pelleted by centrifugation at 450×g for 5 minutes and resuspended in sterile PBS. […] cells/animal were implanted subcutaneously into the chest wall or hind legs of the mice. Imaging studies were performed when tumors reached 4-6 mm in average diameter.
In vivo fluorescence imaging was accomplished by illuminating the animal with light from a laser diode (35 mW) expanded to an approximate 8 cm diameter circular area. The fluorescent light re-emitted from the animal was collected by an image intensifier (model FS9910C, ITT Night Vision, Roanoke, Va.) lens-coupled to a CCD camera (model CH350, Photometrics, Tucson, Ariz.). The imaging was designed so that the field of view could be varied from 3×3 cm to over 12×12 cm by varying the image distance of the 50 mm lens used to focus the image onto the photocathode of the intensifier. The lens was fitted with a holographic notch-plus filter (660 nm center wavelength; Kaiser Optical Systems, Inc., Ann Arbor, Mich.) and a bandpass filter (710 nm center wavelength) to reject back-scattered and reflected excitation photons. Image acquisition was accomplished using V++ software (Digital Optics, Auckland, New Zealand) and the obtained images were stored in uncompressed tagged image file format (tiff). Data processing and analysis were accomplished using Matlab software (The MathWorks, Inc., Natick, Mass.). For all imaging sessions, the image acquisition parameters were kept constant, and each image required 800 ms of camera integration.
For dynamic in vivo fluorescence imaging, mice were anesthetized with an i.p. injection of 50 mg/kg pentobarbital, and a catheter was placed in the tail vein for i.v. injection of NIR dyes. A white-light image of the animal was obtained using a low-power lamp as a white light source with holographic and interference filters removed. Fluorescence images were then acquired as a function of time following administration of Cy5.5 (6 nmol per/mouse) or Cy5.5-c(KRGDf; SEQ ID NO. 3) (6 nmol per/mouse). […]

A further test has as its system human tumor cells. Briefly: In vitro tumor cell binding study (fluorescence microscopy). It counts as cell-based. The settings on record: SKBr-3, HT1080, MDA-MB-435, MDA-MB-468, U87 (PC-3 and U87 for the Tyr analogue); 37° C. As to the method: All human tumor cell-lines were obtained from American Type Culture Collection (Rockville, Md.) and were maintained at 37° C. in a humidified atmosphere containing 5% CO2 in Dulbecco's Modified Eagle's Medium/Nutrient Mixture F-12 Ham (DMEM/F12) and 10% FBS (Gibco, Grand Island, N.Y.).
Cells were seeded on cover slips in 24-well plates (Becton Dickinson Labware, Franklin Lakes, N.J.) and incubated in DMEM/F12 culture medium (0.5 ml/well) overnight. Cy5.5 and Cy5.5-HWG polypeptide imaging agents were added into each well at the indicated concentrations. For the blocking study, doxycycline was added to the culture medium followed by the addition of Cy5.5-HWG polypeptide imaging agent 1 hour later. After an incubation period of 5-60 minutes at 37° C., cells were washed twice with PBS and incubated in a solution of Sytox Green in 95% ethyl alcohol (1 μM, Molecular Probe, Eugene, Oreg.) for 15 minutes to fix and stain cell nuclei. For staining of MMP expression, cells that were pretreated with Cy5.5-HWG polypeptide and stained with Sytox Green were incubated with anti-MMP antibody (Sigma) (1 mg/ml; 1:200 dilution) for 1 hour at room temperature. The cells were then washed and incubated with Texas Red conjugated go at anti-rabbit IgG (Molecular Probe, 4 μg/ml) at room temperature for 1 hour. Cells were washed again with PBS and the cover slips were mounted for microscopic examination using a DMR microscope (Leica Microsystems, Inc., Brannockburn, Ill.). The microscope was equipped with a 75W Xenon lamp, 775 nm/845 nm, 560 nm/645 nm, and 480 nm/535 nm (Excitation/emission) filters (Chroma Technology Corp., Brattleboro, Vt.), a Hamamatsu B/W Chilled CCD camera (Hamamatsu Photonics K.K., Hamamatsu City, Japan), and Image-Pro Plus 4.5.1 software (Media Cybernetics, Silver Spring, Md.). In the multiple staining images, Cy5.5, MMPs, and Sytox Green were pseudocolored red, green, and blue, respectively.

Test [1] concerns the target T1, αvβ3 integrin (on KS1767 cells) (UniProt P06756 31-1048; P05106 27-788).
T1 construct: whole, on cells; also called integrin αvβ3
As to the kind of experiment: control in the KS1767 cell adhesion assay on vitronectin-coated wells (FIG. 31). On the procedure:
A Cell Adhesion Assay was additionally performed. KS1767 cells were seeded in DMEM/F12 culture medium supplemented with 10% fetal bovine serum for 24 hr. Cells (1×10^5) with different concentrations of c(KRGDf; SEQ ID NO. 3) or Cy5.5-c(KRGDf; SEQ ID NO. 3) were added to vitronectin-coated microliter wells under serum-free conditions and incubated at 37° C. for 1 hr. After washing steps, the bound cells were stained with 5% crystal violet, followed by addition of 0.1M HCl to each well. The concentrations of crystal violet were determined by UV/V is absorption at 627 nm. $IC50$ values were estimated from the dose-activity curves.

Test [2] has as its target T2, pre-activated MMP-2 (gelatinase A), Chemicon assay (UniProt P08253 110-660, limits assumed).
T2 sequence (looked up): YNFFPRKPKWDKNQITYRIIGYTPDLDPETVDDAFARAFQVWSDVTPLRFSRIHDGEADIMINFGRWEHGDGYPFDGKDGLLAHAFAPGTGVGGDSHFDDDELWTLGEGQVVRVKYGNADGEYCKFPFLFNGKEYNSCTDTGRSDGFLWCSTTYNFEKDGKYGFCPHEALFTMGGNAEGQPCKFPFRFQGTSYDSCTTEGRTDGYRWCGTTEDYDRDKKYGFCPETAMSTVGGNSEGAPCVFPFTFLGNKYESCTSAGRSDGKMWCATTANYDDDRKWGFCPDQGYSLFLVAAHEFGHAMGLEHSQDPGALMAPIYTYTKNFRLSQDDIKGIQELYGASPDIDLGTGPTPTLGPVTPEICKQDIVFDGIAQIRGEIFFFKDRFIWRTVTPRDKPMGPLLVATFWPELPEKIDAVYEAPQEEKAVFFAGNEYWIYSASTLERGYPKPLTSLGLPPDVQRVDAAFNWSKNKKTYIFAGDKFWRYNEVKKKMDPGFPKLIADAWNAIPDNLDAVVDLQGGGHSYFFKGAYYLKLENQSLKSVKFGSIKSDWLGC
Briefly: cell-based or functional assay.

Positions of bridges follow the written chain, without caps; N, C: chain ends. No end group written: not given here.

T1 sequence (P06756 31-1048, chain 1 of 2): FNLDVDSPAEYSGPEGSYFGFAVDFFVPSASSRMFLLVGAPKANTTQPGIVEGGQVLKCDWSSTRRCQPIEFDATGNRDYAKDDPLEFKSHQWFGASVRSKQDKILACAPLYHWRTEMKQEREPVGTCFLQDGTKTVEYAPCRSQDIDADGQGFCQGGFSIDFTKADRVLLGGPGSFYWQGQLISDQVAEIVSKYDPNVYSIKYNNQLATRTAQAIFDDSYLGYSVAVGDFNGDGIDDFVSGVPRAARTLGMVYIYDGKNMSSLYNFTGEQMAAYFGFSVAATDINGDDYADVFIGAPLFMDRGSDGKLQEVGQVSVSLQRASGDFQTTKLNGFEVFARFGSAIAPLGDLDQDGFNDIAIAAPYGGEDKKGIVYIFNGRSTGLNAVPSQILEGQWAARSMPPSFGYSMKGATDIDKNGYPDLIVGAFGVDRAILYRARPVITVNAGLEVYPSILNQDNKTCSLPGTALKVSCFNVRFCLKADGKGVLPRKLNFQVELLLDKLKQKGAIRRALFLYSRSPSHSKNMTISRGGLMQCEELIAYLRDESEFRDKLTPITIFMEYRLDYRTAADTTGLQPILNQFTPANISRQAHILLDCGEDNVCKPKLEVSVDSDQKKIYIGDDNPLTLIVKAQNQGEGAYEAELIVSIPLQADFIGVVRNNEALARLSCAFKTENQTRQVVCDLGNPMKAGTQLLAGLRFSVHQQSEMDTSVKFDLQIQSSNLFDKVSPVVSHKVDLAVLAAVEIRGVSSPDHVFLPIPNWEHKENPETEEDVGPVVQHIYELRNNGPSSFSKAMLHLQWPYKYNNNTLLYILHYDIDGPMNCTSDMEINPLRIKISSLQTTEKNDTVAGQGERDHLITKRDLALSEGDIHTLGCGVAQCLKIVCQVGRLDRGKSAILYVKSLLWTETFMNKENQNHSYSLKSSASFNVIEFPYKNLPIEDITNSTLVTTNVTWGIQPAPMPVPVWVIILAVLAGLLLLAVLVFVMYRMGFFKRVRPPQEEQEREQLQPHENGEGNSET
T1 sequence (P05106 27-788, chain 2 of 2): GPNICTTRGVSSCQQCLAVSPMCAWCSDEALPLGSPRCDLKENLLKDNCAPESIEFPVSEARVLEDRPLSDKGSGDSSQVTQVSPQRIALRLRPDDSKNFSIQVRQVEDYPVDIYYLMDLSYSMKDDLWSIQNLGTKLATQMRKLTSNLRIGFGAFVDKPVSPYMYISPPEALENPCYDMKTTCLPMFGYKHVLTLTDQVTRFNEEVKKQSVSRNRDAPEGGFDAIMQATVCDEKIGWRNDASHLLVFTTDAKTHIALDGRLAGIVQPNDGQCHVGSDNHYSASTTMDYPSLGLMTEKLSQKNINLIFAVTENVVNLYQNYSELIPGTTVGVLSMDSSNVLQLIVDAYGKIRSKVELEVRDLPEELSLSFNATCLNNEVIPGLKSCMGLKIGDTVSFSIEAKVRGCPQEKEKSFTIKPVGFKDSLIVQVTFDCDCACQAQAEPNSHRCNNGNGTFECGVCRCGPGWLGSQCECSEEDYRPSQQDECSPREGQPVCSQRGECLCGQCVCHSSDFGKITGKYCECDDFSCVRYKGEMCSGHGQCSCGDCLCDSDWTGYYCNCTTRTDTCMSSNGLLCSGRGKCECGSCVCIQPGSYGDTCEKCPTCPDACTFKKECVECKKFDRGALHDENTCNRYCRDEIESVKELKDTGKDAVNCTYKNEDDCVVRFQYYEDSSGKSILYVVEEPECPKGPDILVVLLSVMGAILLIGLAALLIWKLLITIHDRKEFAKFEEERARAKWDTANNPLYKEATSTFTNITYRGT

For Cy5.5 [reference compound], in the test with SKBr-3 tumors, the “Fluorescent signal in tumor” value is recorded as “minimal fluorescence”. The “Tumor targeting / uptake in NIR image” value in the test with KS1767 tumors is “almost no optical activity uptake”. Further, the “Binding to tumor cells” value with human tumor cells was “did not display significant binding”. Consider Ac-ACNGRCG (bridge 2-6; also: kind of ring closure not given here, also called control cyclic pentapeptide) [Ac-A-c(CNGRC)-G], for which the binding result in test [1] is recorded as “no binding”.

B1: c(KAHWGFTLD)NH2 (SEQ ID NO. 10) (side chain-to-side chain linkage) (peptide)
peptide: KAHWGFTLD
HELM: PEPTIDE1{K.A.H.W.G.F.T.L.D.[am]}$PEPTIDE1,PEPTIDE1,1:R3-9:R3$$$V2.0; N-terminus assumed
SMILES: CC(C)C[C@@H]1NC(=O)[C@H]([C@@H](C)O)NC(=O)[C@H](Cc2ccccc2)NC(=O)CNC(=O)[C@H](Cc2c[nH]c3ccccc23)NC(=O)[C@H](Cc2c[nH]cn2)NC(=O)[C@H](C)NC(=O)[C@@H](N)CCCCNC(=O)C[C@@H](C(N)=O)NC1=O
Turning to B1, the “IC50 of MMP-2 enzyme inhibition (biotinylated gelatinase substrate cleavage assay)” value in test [2] amounted to 5.5 µM.
